Reference: US7173004B2, “Macrocyclic isoquinoline peptide inhibitors of hepatitis C virus” (Bristol-Myers Squibb Company, priority 2003, dated 2007)
“Also recorded” adds a separate entry of the source.

Tests used:
[1] = molecular target: T1, porcine pancreatic elastase (PPE) (Sus scrofa, UniProt P00772); experiment: Specificity assay, porcine pancreatic elastase; type: biochemical; settings: read-out: PPE activity in the specificity assays (IC50)
T1 construct: purchased Sigma
Protocol: The specificities of compounds of the present invention were determined against a variety of serine proteases: human neutrophil elastase (HNE), porcine pancreatic elastase (PPE) and human pancreatic chymotrypsin and one cysteine protease: human liver cathepsin B. In all cases a 96-well plate format protocol using calorimetric p-nitroaniline (pNA) substrate specific for each enzyme was used as described previously (PCT Patent Application No. WO 00/09543) with some modifications to the serine protease assays. All enzymes were purchased from Sigma while the substrates were from Bachem.
Each assay included a 2 hr enzyme-inhibitor pre-incubation at room temperature followed by addition of substrate and hydrolysis to ˜30% conversion as measured on a Spectramax Pro microplate reader. Compound concentrations varied from 100 to 0.4 micromolar (“μM”) depending on their potency. […]
The percentage of inhibition was calculated using the formula: [1−((UVinh−UVblank)/(UVctl−UVblank))]×100 […]

HCV replicon [2] = experiment: Two-drug combination matrix studies in HCV replicon system, Universal Response Surface Approach (URSA); type: cell-based; settings: for EC50: Hepatitis C virus
Protocol: In addition to the combination index approach, above, the Universal Response Surface Approach (URSA) was also used to assess the antiviral effects of combinations of NS5A or NS5B inhibitors with the NS3 protease inhibitor. The experiments were conducted in a matrixed format with 8 concentrations of NS3 protease inhibitor crossed against 10 concentrations of NS5A or NS5B inhibitor on each of three plates. 200× stock solutions of each inhibitor concentration were prepared by 3-fold dilution in DMSO. Effects on replication were assessed in the HCV replicon system as described above. The data was analyzed using the URSA as described in Greco, Park and Rustum (Greco, Park, Sook, and Rustum (1990) Application of a New Approach for the Quantitation of Drug Synergism to the Combination of cis-Diamminedichloroplatinum and 1-β-D-Arabinofuranosylcytosine, Cancer Research, 50, 5318–5327). The interaction of the two drugs was assessed by using non-linear regression with a bisection algorithm. Seven parameters were estimated. These include the minimal response or response in the absence of drug, the maximal response or response in the presence of infinite drug, EC50's for the two drugs, slope parameters for the two drugs, and the drug interaction parameter α which provides the assessment of synergism, antagonism or additivity. Additivity is implied when α is equal to zero, synergy if the interaction parameter is larger than zero, and antagonism when the interaction parameter is less than zero. The confidence interval for the interaction parameter is also presented. This interval is used to test for departure from additivity by comparing the bounds to zero—a lower bound of the interval greater than zero indicates synergy, an upper bound of less than zero indicates antagonism, and a value of zero contained in the interval indicates additivity.

HCV replicon [3] = experiment: Three-drug combination studies in HCV replicon system, combination index; type: cell-based
Protocol: […] an NS5B replicase inhibitor (compound 2006; WO 03/010141), were tested in 2-drug combinations with the macrocyclic HCV NS3 protease inhibitor compound 28. In addition, compound 28 was also tested in 3-drug combinations with the NS5A and NS5B inhibitors.
For the experiments shown in Tables 8 and 9, inhibitors were tested at eleven concentrations each. 200× stock solutions of each inhibitor concentration were prepared by 2- or 3-fold dilution in DMSO prior to addition to cells/media. The drugs were tested as monotherapies and in combination with the NS3 protease inhibitor at various concentration ratios. Cells were exposed to compounds for 4 days and the amount of HCV inhibition was then determined using the FRET assay. The potential cytotoxicities of these combined agents were also analyzed in parallel by Alamar Blue staining. […] The degree of antagonism, additivity, or synergy was determined over a range of drug concentrations, and combination response curves were fit to assess the antiviral effects of the drug treatment combinations. The concentration ratios were analyzed using the method of Chou (Chou, Ting-Chao, and Rideout (Editors), (1991) Synergism and Antagonism in Chemotherapy, P. 61–101, Academic Press, New York). Tables 8 and 9 report the estimated EC50 values for the compounds tested, as well as the combination indices (CI). All estimates were computed using SAS Proc NLIN, and a two-parameter logistic. All combination indices were tested for departure from additivity using isobologram methods. Asymptotic confidence intervals were also calculated for each of the combination indices. These intervals are used to test for departure from additivity by comparing the bounds to one—a lower bound of the interval greater than 1 indicates antagonism, an upper bound of less than 1 indicates synergism, and a value of 1 contained in the interval indicates additivity.
Compound 28 was also tested in 3-drug combination experiments with the NS5A inhibitor and the NS5B inhibitor (Table 12). The starting concentrations for the mono-therapies consisted of a 0.667 μM solution of the NS5A inhibitor, a 0.3 μM solution of compound 28, and a 2.5 μM solution of the NS5B inhibitor. The starting concentration for the triple combination contained a mixture of ⅓ of each of the above concentrations. Dose response curves for all three mono-therapies and the triple combination therapy were obtained using 3-fold dilutions, and data analysis was carried out as described above for combination index experiments.

[4] = compound 28 combined with NS5A inhibitor, matrix study (Table 10)
[5] = compound 28 combined with NS5B inhibitor, Expt 1
[6] = compound 28 combined with NS5B inhibitor, Expt 2

T1 sequence (P00772 27-266): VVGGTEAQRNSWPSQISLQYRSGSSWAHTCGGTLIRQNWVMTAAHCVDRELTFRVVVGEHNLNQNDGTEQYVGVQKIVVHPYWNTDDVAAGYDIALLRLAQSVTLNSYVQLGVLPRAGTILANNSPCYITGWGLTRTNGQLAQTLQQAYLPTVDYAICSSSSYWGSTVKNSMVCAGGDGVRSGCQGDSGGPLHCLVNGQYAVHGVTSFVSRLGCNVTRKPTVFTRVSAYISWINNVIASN

Row | Structure (SMILES) | IC50 [1] | EC50 (HCV replicon [2]; matrix study with NS5A inhibitor, URSA estimate (Table 10)) | EC50 (HCV replicon [2]; matrix study with NS5B inhibitor, Expt 1 (Table 11)) | EC50 (HCV replicon [2]; matrix study with NS5B inhibitor, Expt 2 (Table 11)) | Interaction parameter alpha (HCV replicon [2]; [4]) | Overall Result (HCV replicon [2]; [4]) | Overall Result (HCV replicon [2]; compound 28 combined with NS5A inhibitor, matrix study (Table 10), listed as compound 28) | Interaction parameter alpha (HCV replicon [2]; [5]) | Overall Result (HCV replicon [2]; [5]) | Interaction parameter alpha (HCV replicon [2]; [6]) | Overall Result (HCV replicon [2]; [6]) | combination effect with the HCV NS5B inhibitor, matrix format (HCV replicon [2]; two experiments) | combination effect, 3-drug combination with the NS5A inhibitor and the NS5B inhibitor (HCV replicon [3]; 75, 90 and 95% effective doses) | EC50 (HCV replicon [3]; Hepatitis C virus, mono-therapy in the three-drug combination experiment, HCV replicon, NS3 Pr inhibitor is compound 28, read-out: NS3 Pr inhibitor EC50)
1 | CC(C)(C)OC(=O)N[C@H]1CCCCC/C=C\[C@@H]2C[C@@]2(C(=O)NS(C)(=O)=O)NC(=O)[C@@H]2C[C@@H](Oc3nccc4ccccc34)CN2C1=O [Compound 2, [18-(Isoquinolin-1-yloxy)-4-methanesulfonylaminocarbonyl-2,15-dioxo-3,16-diaza-tricyclo[14.3.0.0^4,6]nonadec-7-en-14-yl]-carbamic acid tert-butyl ester] | > 100 µM | – | – | – | – | – | – | – | – | – | – | – | – | –
2 | COc1ccc2c(OC3CC4C(=O)NC5(C(=O)NS(=O)(=O)C6CC6)CC5C=CCOCCCC(NC(=O)OC(C)(C)C)C(=O)N4C3)nccc2c1 (centres unmarked) [Compound 28, [4-Cyclopropanesulfonylaminocarbonyl-18-(6-methoxy-isoquinolin-1-yloxy)-2,15-dioxo-10-oxa-3,16-diaza-tricyclo[14.3.0.0^4,6]nonadec-7-en-14-yl]-carbamic acid tert-butyl ester] | – | 0.009 µM | 0.015 µM | 0.02 µM | 0.63 | Additivity | additivity | 0.47 | Additivity | 0.31 | Additivity | overall additivity | Synergistic effects; also recorded: No drug antagonism | 0.008 µM
